This is an account of results in the NIST ThermoML archive (doi:10.1016/j.fluid.2019.06.004).

A short description of data set [1]: Molar enthalpy of transition or fusion. The following applies: DSC.

Numbers after ± are expanded uncertainties.

Regarding `NC(=O)c1cnccn1` [pyrazinecarboxamide], the Normal melting temperature (Crystal) is 188.96 ± 2.2 °C. Also, the Triple point temperature (Crystal 2, DSC) worked out at 421.11 ± 1.2 K. Moreover, the “Molar enthalpy of transition or fusion” value in data set [1] (Crystal 2) amounted to 0.363 ± 0.043 kcal/mol; in data set [1] (Crystal), 6.09 ± 0.502 kcal/mol.
